In EP0238178B1, “Novel derivatives of erythromycylamine” (ELI LILLY AND COMPANY, priority 1986, dated 1987):
Where two headings read alike, the source gives them in different places.

Assays:
Experiment in all cases: Experimental bacterial infection in mice, ED50
Type in all cases: in vivo
Streptococcus pneumoniae = conditions: Streptococcus pneumoniae, two doses, dose protecting 50% of animals
Procedure: (§1) The new derivatives of this invention have also shown in vivo antimicrobial activity against experimental bacterial infections. When two doses of test compound were administered to mice in experimental infections, the activity observed was measured as an EDso value [effective dose in mg/kg to protect 50% of the test animals: see Warren Wick, et al., J. Bacteriol. 81, 233-235 (1961)].

Streptococcus pyogenes = conditions: Streptococcus pyogenes, two doses, dose protecting 50% of animals
Procedure: as §1

Staphylococcus aureus = conditions: Staphylococcus aureus, two doses, dose protecting 50% of animals
Procedure: as §1

[1] = sc, subcutaneous, read-out: Subcutaneous ED50

Structure (SMILES) | ED50 (Streptococcus pneumoniae; po, read-out: Oral ED50) [mg/kg] | ED50 (Streptococcus pyogenes; po, read-out: Oral ED50) [mg/kg] | ED50 (Staphylococcus aureus; po, read-out: Oral ED50) [mg/kg] | ED50 (Streptococcus pneumoniae; [1]) [mg/kg] | ED50 (Streptococcus pyogenes; [1]) [mg/kg] | ED50 (Staphylococcus aureus; [1]) [mg/kg]
CCOC(=O)C1CC1CN[C@@H]1[C@H](C)[C@@H](O)[C@](C)(O)[C@@H](CC)OC(=O)[C@H](C)[C@@H](O[C@H]2C[C@@](C)(OC)[C@@H](O)[C@H](C)O2)[C@H](C)[C@@H](O[C@@H]2O[C@H](C)C[C@H](N(C)C)[C@H]2O)[C@](C)(O)C[C@H]1C (stereo partly drawn) [Compound 27, 9-Deoxo-9-[[[2-(ethoxycarbonyl)cyclopropyl]methyl]amino]erythromycin] | 30.4 | 27.1 | 50 |  |  | 
CC[C@H]1OC(=O)[C@H](C)[C@@H](O[C@H]2C[C@@](C)(OC)[C@@H](O)[C@H](C)O2)[C@H](C)[C@@H](O[C@@H]2O[C@H](C)C[C@H](N(C)C)[C@H]2O)[C@](C)(O)C[C@@H](C)[C@H](NCCCC#N)[C@H](C)[C@@H](O)[C@]1(C)O [Compound 29, 9-Deoxo-9-[(3-cyanopropyl)amino]erythromycin] | 28.7 | 21.1 | 36.1 |  |  | 
CC[C@H]1OC(=O)[C@H](C)[C@@H](O[C@H]2C[C@@](C)(OC)[C@@H](O)[C@H](C)O2)[C@H](C)[C@@H](O[C@@H]2O[C@H](C)C[C@H](N(C)C)[C@H]2O)[C@](C)(O)C[C@@H](C)[C@H](NCCC2=C(C)CCCC2(C)C)[C@H](C)[C@@H](O)[C@]1(C)O [Compound 30, 9-Deoxo-9-[[2-(2,6,6-trimethyl-1-cyclohexen-1-yl)ethyl]amino]erythromycin] | > 50 | > 50 | > 50 |  |  | 
CC[C@H]1OC(=O)[C@H](C)[C@@H](O[C@H]2C[C@@](C)(OC)[C@@H](O)[C@H](C)O2)[C@H](C)[C@@H](O[C@@H]2O[C@H](C)C[C@H](N(C)C)[C@H]2O)[C@](C)(O)C[C@@H](C)[C@H](NCCOC)[C@H](C)[C@@H](O)[C@]1(C)O [Compound 31, 9-Deoxo-9-[(2-Methoxyethyl)amino]erythromycin] | 18.7 | 16.3 | 35.2 | 3.3 | 2.1 | 2.5
CCCN[C@@H]1[C@H](C)[C@@H](O)[C@@H](C)[C@@H](CC)OC(=O)[C@H](C)[C@@H](O[C@H]2C[C@@](C)(OC)[C@@H](O)[C@H](C)O2)[C@H](C)[C@@H](O[C@@H]2O[C@H](C)C[C@H](N(C)C)[C@H]2O)[C@](C)(O)C[C@H]1C [Compound 38] | 50 | 20.6 | 41 |  |  | 
CCCCCCCCCCN[C@@H]1[C@H](C)[C@@H](O)[C@@H](C)[C@@H](CC)OC(=O)[C@H](C)[C@@H](O[C@H]2C[C@@](C)(OC)[C@@H](O)[C@H](C)O2)[C@H](C)[C@@H](O[C@@H]2O[C@H](C)C[C@H](N(C)C)[C@H]2O)[C@](C)(O)C[C@H]1C [Compound 41] | > 50 | > 50 | > 50 |  |  | 
CC[C@H]1OC(=O)[C@H](C)[C@@H](O[C@H]2C[C@@](C)(OC)[C@@H](O)[C@H](C)O2)[C@H](C)[C@@H](O[C@@H]2O[C@H](C)C[C@H](N(C)C)[C@H]2O)[C@](C)(O)C[C@@H](C)[C@H](NCCOCCOC)[C@H](C)[C@@H](O)[C@H]1C [Compound 49] | > 56 | 40.9 | > 50 |  |  | 
